tested on: HCV replicon; assay: HCV replicon replication assay (NPTII ELISA); assay type: cell-based, Hepatitis C virus (Huh-7 cells); conditions: Hepatitis C virus, Huh-7, 72 h, inhibition of HCV replicon replication in Huh-7 HCV replicon-containing cells, three days incubation, NPT level by ELISA; read-out: EC50
Procedure, shortened: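 Huh-7 cells carrying a Bartenschlager NPTII (neo) HCV replicon, treated 3 days at 37 °C with compound, generally 6 concentrations from 10 to 0.03 micromolar, in equal DMSO across wells. NPTII level, proportional to replication, read by capture ELISA on methanol:acetone-fixed cells; interferon alpha positive control; toxicity scored visually or by MTS.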

Row | Compound | EC50
1 | CC(C)COc1ccc(N(C(N)=O)c2nc(-c3ccc(F)c(F)c3)cs2)cc1C(F)(F)F [Compound 126, 1-(4-(3,4-difluorophenyl)thiazol-2-yl)-1-(4-isobutoxy-3-(trifluoromethyl)phenyl)urea] | < 1000 nM
2 | CCCCCOc1ccc2c(c1)[nH]c(=O)n2-c1nc(-c2cccnc2)cs1 [Compound 127, 5-(pentyloxy)-1-(4-(pyridin-3-yl)thiazol-2-yl)-1H-benzo[d]imidazol-2(3H)-one] | 1000 to 10000 nM
3 | CCCCCOc1ccc2c(c1)[nH]c(=O)c(=O)n2-c1nc(-c2cccnc2)cs1 [Compound 128, 6-(pentyloxy)-1-(4-(pyridin-3-yl)thiazol-2-yl)quinoxaline-2,3(1H,4H)-dione] | > 10000 nM
4 | CCCCCCCCOc1ccc(N(C(N)=O)c2nc(-c3cccnc3)cs2)cc1C(F)(F)F [Compound 130, 1-(4-(octyloxy)-3-(trifluoromethyl)phenyl)-1-(4-(pyridin-3-yl)thiazol-2-yl)urea] | < 1000 nM
5 | CCCCCCCCOc1ccc(N(C(=O)C(N)=O)c2nc(-c3cccnc3)cs2)cc1C(F)(F)F [Compound 131, N1-(4-(octyloxy)-3-(trifluoromethyl)phenyl)-N1-(4-(pyridin-3-yl)thiazol-2-yl)oxalamide] | < 1000 nM
6 | CCCCOc1ccc(N(C(N)=O)c2nc(-c3ccc(C)nc3)cs2)cc1C(F)(F)F [Compound 132, 1-(4-butoxy-3-(trifluoromethyl)phenyl)-1-(4-(6-methylpyridin-3-yl)thiazol-2-yl)urea] | < 1000 nM
7 | CCCCOc1ccc(N(C(N)=O)c2nc(-c3ccc(O)c(C(N)=O)c3)cs2)cc1C(F)(F)F [Compound 133, 5-(2-(1-(4-butoxy-3-(trifluoromethyl)phenyl)ureido)thiazol-4-yl)-2-hydroxybenzamide] | < 1000 nM
8 | CCCCOc1ccc(N(C(N)=O)c2nc(-c3ccc4c(c3)NC(=O)CO4)cs2)cc1C(F)(F)F [Compound 134, 1-(4-butoxy-3-(trifluoromethyl)phenyl)-1-(4-(3-oxo-3,4-dihydro-2H-benzo[b][1,4]oxazin-6-yl)thiazol-2-yl)urea] | 1000 to 10000 nM
9 | CCCCOc1ccc(N(C(N)=O)c2nc(-c3ccc(F)cc3)cs2)cc1C(F)(F)F [Compound 135, 1-(4-butoxy-3-(trifluoromethyl)phenyl)-1-(4-(4-fluorophenyl)thiazol-2-yl)urea] | < 1000 nM
10 | CCCCOc1ccc(N(C(N)=O)c2nc(-c3cccnc3)cs2)cc1C(F)(F)F [Compound 136, 1-(4-butoxy-3-(trifluoromethyl)phenyl)-1-(4-(pyridin-3-yl)thiazol-2-yl)urea] | < 1000 nM
11 | CCCCOc1ccc(N(C(N)=O)c2nc(-c3ccncc3)cs2)cc1C(F)(F)F [Compound 137, 1-(4-butoxy-3-(trifluoromethyl)phenyl)-1-(4-(pyridin-4-yl)thiazol-2-yl)urea] | < 1000 nM
12 | CCCCOc1ccc(N(C(N)=O)c2nc(-c3ccc(F)c(F)c3)cs2)cc1C(F)(F)F [Compound 138, 1-(4-butoxy-3-(trifluoromethyl)phenyl)-1-(4-(3,4-difluorophenyl)thiazol-2-yl)urea] | < 1000 nM
13 | CCCCCN(C)c1ccc(N(C(N)=O)c2nc(-c3ccc(C)nc3)cs2)cc1C(F)(F)F [Compound 139, 1-(4-(methyl(pentyl)amino)-3-(trifluoromethyl)phenyl)-1-(4-(6-methylpyridin-3-yl)thiazol-2-yl)urea] | < 1000 nM
14 | CCCCCN(C)c1ccc(N(C(N)=O)c2nc(-c3ccc(F)cc3)cs2)cc1C(F)(F)F [Compound 140, 1-(4-(4-fluorophenyl)thiazol-2-yl)-1-(4-(methyl(pentyl)amino)-3-(trifluoromethyl)phenyl)urea] | < 1000 nM
15 | CCCCCOc1ccc(N(C(N)=O)c2nc(-c3ccncc3)cs2)cc1F [Compound 141, 1-(3-fluoro-4-(pentyloxy)phenyl)-1-(4-(pyridin-4-yl)thiazol-2-yl)urea] | > 10000 nM
16 | NC(=O)N(c1ccc(OCC2CCCCC2)c(F)c1)c1nc(-c2ccncc2)cs1 [Compound 142, 1-(4-(cyclohexylmethoxy)-3-fluorophenyl)-1-(4-(pyridin-4-yl)thiazol-2-yl)urea] | 1000 to 10000 nM
17 | CCCCCCOc1ccc(N(C(N)=O)c2nc(-c3ccc(C)nc3)cs2)cc1 [Compound 143, 1-(4-(hexyloxy)phenyl)-1-(4-(6-methylpyridin-3-yl)thiazol-2-yl)urea] | 1000 to 10000 nM
18 | CCCCCCOc1ccc(N(C(N)=O)c2nc(-c3ccc(O)c(C(N)=O)c3)cs2)cc1 [Compound 144, 5-(2-(1-(4-(hexyloxy)phenyl)ureido)thiazol-4-yl)-2-hydroxybenzamide] | 1000 to 10000 nM

Row | Compound | EC50
19 | CCCCCCOc1ccc(N(C(N)=O)c2nc(-c3cccnc3)cs2)cc1 [Compound 145, 1-(4-(hexyloxy)phenyl)-1-(4-(pyridin-3-yl)thiazol-2-yl)urea] | < 1000 nM
20 | CCCCCCOc1ccc(N(C(N)=O)c2nc(-c3ccncc3)cs2)cc1 [Compound 146, 1-(4-(hexyloxy)phenyl)-1-(4-(pyridin-4-yl)thiazol-2-yl)urea] | 1000 to 10000 nM
21 | Cc1ccc(-c2csc(N(C(N)=O)c3ccc(OCC(C)C)c(C(F)(F)F)c3)n2)cn1 [Compound 147, 1-(4-isobutoxy-3-(trifluoromethyl)phenyl)-1-(4-(6-methylpyridin-3-yl)thiazol-2-yl)urea] | < 1000 nM
22 | CC(C)COc1ccc(N(C(N)=O)c2nc(-c3ccc(O)c(C(N)=O)c3)cs2)cc1C(F)(F)F [Compound 148, 2-hydroxy-5-(2-(1-(4-isobutoxy-3-(trifluoromethyl)phenyl)ureido)thiazol-4-yl)benzamide] | < 1000 nM
23 | CC(C)COc1ccc(N(C(N)=O)c2nc(-c3ccc4c(c3)NC(=O)CO4)cs2)cc1C(F)(F)F [Compound 149, 1-(4-isobutoxy-3-(trifluoromethyl)phenyl)-1-(4-(3-oxo-3,4-dihydro-2H-benzo[b][1,4]oxazin-6-yl)thiazol-2-yl)urea] | < 1000 nM
24 | CC(C)COc1ccc(N(C(N)=O)c2nc(-c3ccccn3)cs2)cc1C(F)(F)F [Compound 150, 1-(4-isobutoxy-3-(trifluoromethyl)phenyl)-1-(4-(pyridin-2-yl)thiazol-2-yl)urea] | < 1000 nM
25 | CC(C)COc1ccc(N(C(N)=O)c2nc(-c3cccnc3)cs2)cc1C(F)(F)F [Compound 151, 1-(4-isobutoxy-3-(trifluoromethyl)phenyl)-1-(4-(pyridin-3-yl)thiazol-2-yl)urea] | < 1000 nM
26 | CCCCCOc1ccc(N(C(=O)C(N)=O)c2nc(-c3cccnc3)cs2)cc1C(F)(F)F [Compound 153, N1-(4-(pentyloxy)-3-(trifluoromethyl)phenyl)-N1-(4-(pyridin-3-yl)thiazol-2-yl)oxalamide] | < 1000 nM
27 | CCCCCCCC(F)(F)c1ccc(N(C(C)=O)c2nc(-c3cccnc3)cs2)cc1 [Compound 154, N-(4-(1,1-difluorooctyl)phenyl)-N-(4-(pyridin-3-yl)thiazol-2-yl)acetamide] | < 1000 nM
28 | CCCCCCc1ccc(N(C(N)=O)c2nc(-c3cccnc3)c(F)s2)cc1C(F)(F)F [Compound 155, 1-(5-fluoro-4-(pyridin-3-yl)thiazol-2-yl)-1-(4-hexyl-3-(trifluoromethyl)phenyl)urea] | < 1000 nM
29 | CCCCCOc1ccc(N(C(N)=O)c2nc(-c3cccnc3)c(F)s2)cc1C(F)(F)F [Compound 156, 1-(5-fluoro-4-(pyridin-3-yl)thiazol-2-yl)-1-(4-(pentyloxy)-3-(trifluoromethyl)phenyl)urea] | < 1000 nM
30 | CCCCCCCCc1ccc(N(C(=O)[C@@H](N)C(C)C)c2nc(-c3ccc(O)nc3)cs2)cc1C(F)(F)F [Compound 157, (S)-2-amino-N-(4-(6-hydroxypyridin-3-yl)thiazol-2-yl)-3-methyl-N-(4-octyl-3-(trifluoromethyl)phenyl)butanamide] | 1000 to 10000 nM
31 | CCCCCCCCOc1ccc(N(C(=O)COC(C)=O)c2nc(-c3cccnc3)cs2)cc1C(F)(F)F [Compound 158, 2-((4-(octyloxy)-3-(trifluoromethyl)phenyl)(4-(pyridin-3-yl)thiazol-2-yl)amino)-2-oxoethyl acetate] | < 1000 nM
32 | CCCCCCCCOc1ccc(N(C(=O)CO)c2nc(-c3cccnc3)cs2)cc1C(F)(F)F [Compound 159, 2-hydroxy-N-(4-(octyloxy)-3-(trifluoromethyl)phenyl)-N-(4-(pyridin-3-yl)thiazol-2-yl)acetamide] | < 1000 nM
33 | CCCCCCCCOc1ccc(N(C(=O)CN(C)C)c2nc(-c3cccnc3)cs2)cc1C(F)(F)F [Compound 160, 2-(dimethylamino)-N-(4-(octyloxy)-3-(trifluoromethyl)phenyl)-N-(4-(pyridin-3-yl)thiazol-2-yl)acetamide] | < 1000 nM
34 | CCCCCCCCOc1ccc(N(C(=O)CCC(=O)O)c2nc(-c3cccnc3)cs2)cc1C(F)(F)F [Compound 161, 4-((4-(octyloxy)-3-(trifluoromethyl)phenyl)(4-(pyridin-3-yl)thiazol-2-yl)amino)-4-oxobutanoic acid] | < 1000 nM
35 | CCCCCCCCOc1ccc(N(C(=O)CCC(=O)O)c2nc(-c3cccnc3)c(F)s2)cc1C(F)(F)F [Compound 163, 4-((5-fluoro-4-(pyridin-3-yl)thiazol-2-yl)(4-(octyloxy)-3-(trifluoromethyl)phenyl)amino)-4-oxobutanoic acid] | < 1000 nM
36 | CCCCCCCCOc1ccc(N(C(=O)CNC(=O)OC(C)(C)C)c2nc(-c3cccnc3)c(F)s2)cc1C(F)(F)F [Compound 164, tert-butyl 2-((5-fluoro-4-(pyridin-3-yl)thiazol-2-yl)(4-(octyloxy)-3-(trifluoromethyl)phenyl)amino)-2-oxoethylcarbamate] | < 1000 nM

same assay, conditions: inhibition of HCV replicon replication in Huh-7 HCV replicon-containing cells, three days incubation, NPT level by ELISA

Row | Compound | EC50
37 | CC(C)COc1ccc(N(C(N)=O)c2nc(-c3cccnc3)cs2)cc1C(F)(F)F [Compound 152, 1-(4-isobutoxy-3-(trifluoromethyl)phenyl)-1-(4-(pyridin-3-yl)thiazol-2-yl)urea] | 1000 to 10000 nM

Source: patent US20070213301A1 (ACHILLION PHARMACEUTICALS, INC., priority 2006, published 2007)
